Source: the NIST ThermoML archive (doi:10.1021/je800026p)

Test: xn = mol fraction of the nth substance listed
Conditions: 101 kPa, Liquid; for speed of sound: Sing-around technique in a fixed-path interferometer; for mass density: Vibrating tube method

CCCCCCOCCOCCO [2-(2-hexyloxyethoxy)ethanol] + CCCCN
Conditions	mass density, 288.15 K [kg/m3]	mass density, 293.15 K [kg/m3]	mass density, 298.15 K [kg/m3]	mass density, 303.15 K [kg/m3]	mass density, 308.15 K [kg/m3]	speed of sound, 288.15 K [m/s]	speed of sound, 293.15 K [m/s]	speed of sound, 298.15 K [m/s]	speed of sound, 303.15 K [m/s]	speed of sound, 308.15 K [m/s]
x1 = 0.1165	788.964	784.34	779.774	775.186	770.602	1323	1302.2	1281.5	1260.8	1240.3
x1 = 0.1587	803.568	799.044	794.52	790	785.486	1332.3	1312	1291.7	1271.5	1251.3
x1 = 0.1943	814.988	810.552	806.078	801.606	797.118	1339.5	1319.7	1299.7	1279.8	1259.8
x1 = 0.2403	828.571	824.179	819.765	815.333	810.88	1348.2	1328.7	1309.1	1289.6	1270
x1 = 0.2974	843.631	839.297	834.939	830.566	826.173	1357.8	1338.8	1319.6	1300.6	1281.3
x1 = 0.3403	853.769	849.458	845.129	840.783	836.421	1364.2	1345.5	1326.6	1307.9	1288.9
x1 = 0.3916	864.666	860.386	856.092	851.78	847.457	1371.1	1352.6	1334.1	1315.7	1297.1
x1 = 0.4568	876.866	872.668	868.407	864.132	859.843	1378.6	1360.4	1342.2	1324.2	1306
x1 = 0.5105	885.772	881.607	877.388	873.158	868.903	1383.9	1365.9	1348	1330.1	1312.3
x1 = 0.5658	894.125	889.991	885.768	881.571	877.355	1388.5	1370.7	1353	1335.3	1317.8
x1 = 0.6081	900.031	895.896	891.728	887.547	883.355	1391.5	1373.9	1356.3	1338.8	1321.2
x1 = 0.6559	906.287	902.162	898.025	893.876	889.716	1394.5	1376.9	1359.5	1342.1	1324.9
x1 = 0.6977	911.396	907.303	903.194	899.074	894.942	1396.7	1379.2	1361.8	1344.5	1327.5
x1 = 0.7402	916.322	912.248	908.162	904.067	899.964	1398.6	1381.2	1363.9	1346.7	1329.8
x1 = 0.8029	923	918.949	914.893	910.805	906.755	1400.8	1383.5	1366.4	1349.3	1332.5
x1 = 0.8675	928.954	924.929	920.91	916.89	912.833	1402.5	1385.4	1368.3	1351.4	1334.6
x1 = 0.9082	932.126	928.121	924.113	920.095	916.07	1403.4	1386.3	1369.3	1352.4	1335.7
x1 = 0.9635	935.472	931.477	927.494	923.492	919.484	1404.3	1387.4	1370.4	1353.6	1336.8
